These results are taken from US20080176957A1, “PRESERVATIVE COMPOSITIONS COMPRISING RENEWABLY-BASED, BIODEGRADABLE 1,3-PROPANEDIOL” (priority 2006, published 2008).

A short description of data set [1]: Solubility of compounds and common preservatives in Bio-PDO and PG. It counts as physicochemical. The text has this: Cosmetic preservative blends need a broad range of protection against gram positive and negative bacteria, yeasts and molds. In cosmetics, solubility is also important. Clear solutions are preferred to emulsions, suspensions or dispersions. […] Other preservatives or a mixture of preservatives can be used with Bio-PDO™, such as choloracetamide sodium benzoate, 5-bromo-5-nitro-1,3-dioxane, butyl paraben, ethyl paraben, isobutyl paraben, iodopropynyl butylcarbamate, and 2,4,4′-trichloro-2′-[…].

Data set [2] deals with humans. Description: Second human study of irritation or delayed contact hypersensitivity, Bio-PDO vs PG (Example 3). The format is in vivo. The text has this:
A second study to determine the potential of biologically-derived 1,3-propanediol and PG, diluted to concentrations of 25%, 50%, and 75% (pH 4, 7 and 9 tested) to cause irritation or delayed contact hypersensitivity in humans.

Data set [3] deals with humans. The data set is described as follows: Human repeated patch test for irritation or delayed contact hypersensitivity (Example 2). The format is in vivo. Conditions: diluted with D.I. water to 5%, 25% and 50%, nine 24-hour induction patches and challenge. The text has this:
The purpose of this study was to determine the potential of biologically-derived 1,3-propanediol, diluted to concentrations of 5%, 25%, and 50%, to cause irritation or delayed contact hypersensitivity in humans. The method employed in carrying out this test, described below, was similar to that described in “Appraisal of the Safety of Chemicals in Foods, Drugs and Cosmetics” by […] and published by the Association of Food and Drug Officials of the United States, the entirety of which is incorporated herein by reference.
Test Panel: The test involved the application of the test article to the upper arms of a group of 112 volunteer panelists. The panelists ranged from 16 to 71 years of age. One hundred and five panelists completed the study. Prior to the initiation of the study, all panelists were in good general health and free of any visible skin disease or anomaly in the area to be patched. Each panelist was required to read, understand and sign an informed consent statement. […]

Data set [4] has as its system skin. The conditions noted are these: background statement, Kinnunen et al. 1991; cited from earlier work.

Like-named read-outs stand apart in the source and are kept apart here.

With `OCCCCO` [1,4-Butanediol], the “Solubility in Bio-PDO ™” value in data set [1] (50 Wt % in Bio-PDO (Table 1)) is given as “Soluble”. The “Solubility in PG” value in data set [1] (50 Wt % in PG (Table 1)) is on record as “Soluble”.
Regarding `OCCCO` [Bio-PDO™, 1,3-propanediol], the “Dermal irritation or sensitization reactions” value in data set [2] (humans, 25, 50 and 75% at pH 7, or 75% at pH 4 and 9) was “did not produce any clinically significant dermal irritation or sensitization reactions”. In addition, the “Skin irritation, fatiguing or sensitization” value in data set [3] is “not to be a skin irritant, fatiguing agent, or sensitizing agent”.
As for `CCO` [Ethanol], in data set [1], the “Solubility in Bio-PDO ™” value was “Soluble” and the “Solubility in PG” value is listed as “Soluble”.
On to `OCC(O)CO` [Glycerol], for which, in data set [1], the “Solubility in Bio-PDO ™” value is “Soluble” and the “Solubility in PG” value was “Soluble”.
Regarding `CC(C)O` [IPA], the “Solubility in Bio-PDO ™” value in data set [1] (50 Wt % in Bio-PDO (Table 1)) was “Soluble”. In data set [1] (50 Wt % in PG (Table 1)), the “Solubility in PG” value is “Soluble”.
Consider `Oc1cc(Cl)ccc1Oc1ccc(Cl)cc1Cl` [Irgasan], for which the “Solubility in Bio-PDO ™” value in data set [1] (20 Wt % in Bio-PDO (Table 2)) was “Soluble”. Further, in data set [1] (20 Wt % in PG (Table 2)), the “Solubility in PG” value is listed as “Soluble”.
Consider `CC(O)CO` (centres unmarked) [PG, propylene glycol, reference compound], for which the Dermal irritation entry in data set [2] (in vivo, pH 7) is on record as “produced dermal irritation at all three concentrations”. Further, the “Skin irritation and sensitization” value in data set [4] is “is a skin irritant and skin sensitizer”.
Turning to `O=C(O)c1ccccc1O` [Salicyclic acid], the “Solubility in Bio-PDO ™” value in data set [1] (10 Wt % in Bio-PDO (Table 2)) is recorded as “Soluble”; in data set [1] (15 Wt % in Bio-PDO (Table 2)) it was “Soluble”; in data set [1] (20 Wt % in Bio-PDO (Table 2)) it was “Not Soluble”. For the same compound, the “Solubility in PG” value in data set [1] (10 Wt % in PG (Table 2)), in data set [1] (15 Wt % in PG (Table 2)) and in data set [1] (20 Wt % in PG (Table 2)) was “Soluble” each time.
